Experimental data reported in US20100317047A1, “Biomarkers of Hemorrhagic Shock” (THE GENERAL HOSPITAL CORPORATION, priority 2009, published 2010).

Columns and labels:
22.7 kDa protein = experiment: SELDI-TOF MS serum protein profiling in lethal hemorrhagic shock model; assay type: in vivo; conditions: rat serum, 24 hours after VPA 300 mg/kg via femoral vein after hemorrhage; p<0.05 vs HS, n=5
Procedure: (§1) An animal model of HS was used. Male Wistar-Kyoto rats (254.12±2.71 grams, Harlan, Indianapolis, Ind.) were used in the lethal model of hemorrhagic shock (Shults et al., J. Trauma. 2008; 64(3): 629-638). Each animal's estimated blood volume was calculated using the formula: [estimated blood volume (mL)=weight (g)×0.06 (mL/g)+0.77]. About 1.3 mL of blood was manually drawn at the beginning and end of hemorrhage for analysis (included in the total hemorrhage calculation). The animals were hemorrhaged (40% of their calculated total blood volume) via a femoral arterial catheter over 10 minutes, followed by a 20% blood volume venous bleed over the next 50 minutes. Bleeding was performed using Kent Scientific adjustable pumps (Kent Scientific Corporation, NJ). VPA (300 mg/kg) was administered via a femoral vein catheter after completion of hemorrhage. Blood pressure was monitored continuously during the experiment. The mean arterial pressure (MAP) in animals that were subjected to hemorrhage dropped sharply after bleeding to approximately 20 mm Hg. […]
ProteinChip profiling was performed on CM10 ProteinChip arrays (Ciphergen Biosystems, Fremont Calif.), as recommended by the manufacturer. […] The arrays were then inserted into a ProteinChip (Enterprise edition) TOF-MS and read at an optimized laser setting of 2000 nJ-5000 nJ. […]

claudin-3 [1] = experiment: iTRAQ quantification of serum claudin-3 peptide in hemorrhagic shock model; assay type: in vivo; conditions: rat serum, 24 hours post-VPA treatment (300 mg/kg) vs post-hemorrhagic shock; BL to HS ratio 0.323
Procedure: as §1
Immunodepletion of serum abundant proteins was performed as follows. […] Column performance was monitored by sodium dodecyl sulphate-polyacrylamide gel electrophoresis (SDS-PAGE) followed by Coomassie Blue staining (BioBlue, BioRad). […]

claudin-3 [2] = experiment: Western blot of serum claudin-3 in hemorrhagic shock model; assay type: in vivo; conditions: rat serum, 1 hour following VPA treatment; HS 1 hour group showed ~23 kDa and ~11 kDa bands
Procedure: An animal model of HS was used. Male Wistar-Kyoto rats (254.12±2.71 grams, Harlan, Indianapolis, Ind.) were used in the lethal model of hemorrhagic shock (Shults et al., J. Trauma. 2008; 64(3): 629-638). Each animal's estimated blood volume was calculated using the formula: [estimated blood volume (mL)=weight (g)×0.06 (mL/g)+0.77]. About 1.3 mL of blood was manually drawn at the beginning and end of hemorrhage for analysis (included in the total hemorrhage calculation). The animals were hemorrhaged (40% of their calculated total blood volume) via a femoral arterial catheter over 10 minutes, followed by a 20% blood volume venous bleed over the next 50 minutes. Bleeding was performed using Kent Scientific adjustable pumps (Kent Scientific Corporation, NJ). VPA (300 mg/kg) was administered via a femoral vein catheter after completion of hemorrhage. Blood pressure was monitored continuously during the experiment. […]
To assess whether claudin-3 is a potential biomarker, independent serum samples were taken of sham (no hemorrhage and no treatment), HS 1 hour (1 hour following hemorrhagic shock), and VPA 1 hour (1 hour following VPA treatment) from individual rats and the level of the candidate biomarker was determined by Western blot with anti-claudin-3 antibody. […]

claudin-3 [3] = experiment: Western blot of intestinal claudin-3 protein in hemorrhagic shock model; assay type: in vivo; conditions: rat intestinal lysate, 1, 6 and 24 hours after VPA treatment, vs HS 1 hour; n=3
Procedure: as §1, with “experiment.” for “experiment. The mean arterial pressure (MAP) in animals that were subjected to hemorrhage dropped sharply after bleeding to approximately 20 mm Hg.”
Claudin-3 is a TJ protein that has important roles in establishing epithelial and endothelial barriers. To find out whether HS and VPA treatment affect claudin-3 protein in TJ of epithelial cells, protein expression was analyzed in intestinal tissue obtained from sham, HS 1 hour (1 hour after hemorrhagic shock), and VPA-treated animals (1 hour, 6 hours, and 24 hours after treatment). […]

claudin-3 mRNA = experiment: RT-PCR of intestinal claudin-3 mRNA in hemorrhagic shock model; assay type: in vivo; conditions: rat intestine, 1, 6 and 24 hours; β-actin internal control, n=3
Procedure: To assess whether gene expression of claudin-3 responds to HS and VPA treatment, the mRNA expression of rat intestines among the groups of sham, HS and VPA treatment was compared at 1, 6 and 24 hours using RT-PCR methods.

hemorrhagic shock [4] = experiment: Survival in lethal model of hemorrhagic shock; assay type: in vivo, rat; conditions: rats, 60% blood volume hemorrhage, VPA 300 mg/kg; none of the untreated animals survived
Procedure: as §1, with “Hg. Blood was drawn at baseline (BL, before hemorrhage), hemorrhagic shock (HS), and 24 hours after VPA treatment from individual rats for protein biomarker screening and identification.” for “Hg.”

hemorrhagic shock [5] = conditions: rats; Shults et al. 2008, Li et al. 2008, WO 2007117272; cited from earlier work

In the case of `CCCC(CCC)C(=O)O` [VPA, Valproic acid], the “serum level of 22.7 kDa protein (SELDI-TOF MS peak intensity) vs HS” value (22.7 kDa protein) is reported as “down-regulated in the VPA group sharply”, the “ratio of VPA to HS, claudin-3 peptide iTRAQ tag intensity in serum” value (claudin-3 [1]) is reported as 0.425 and the “serum claudin-3 by Western blot” value (claudin-3 [2]) is reported as “no claudin-3 was detected”. For the same compound, the “intestinal claudin-3 protein level by Western blot” value (claudin-3 [3]) was “significantly attenuated the HS-induced reduction of claudin-3”, the “intestinal claudin-3 mRNA expression by RT-PCR” value (claudin-3 mRNA) was “did not significantly change claudin-3 mRNA expression” and the “survival after hemorrhagic shock” value (hemorrhagic shock [4]) was “survived”. The “survival after lethal HS (literature)” value (hemorrhagic shock [5]) was “improves survival after lethal HS in rats”.
